# Experimental data taken from PMC10089289, “Well-Defined Heparin Mimetics Can Inhibit Binding of the Trimeric Spike of SARS-CoV-2 in a Length-Dependent Manner” (JACS Au, 2023).
# Columns and labels:
# [1] = biological target: trimeric spike glycoprotein of SARS-CoV-2; test: SPR competition assay: binding of SARS-CoV-2 spike trimer to heparin-immobilized sensor chip; settings: 100 nM spike trimer, 25 °C, read-out: IC50, inhibition of binding of spike trimer to immobilized heparin (50% reduction in RUs)
# [2] = biological target: SARS-CoV-2 Wuhan RBD binding to Vero E6 cells (Severe acute respiratory syndrome coronavirus 2, UniProt P0DTC2); type: cell-based
# [3] = biological target: T1, antithrombin-III (AT-III) (Homo sapiens, UniProt P01008); test: SPR competition assay: binding of AT-III to heparin chip; settings: 100 nM AT-III, 100 to 0.001 μg/mL
# T1 construct: purchased Haematologic technologies
# T1 sequence (P01008 33-464): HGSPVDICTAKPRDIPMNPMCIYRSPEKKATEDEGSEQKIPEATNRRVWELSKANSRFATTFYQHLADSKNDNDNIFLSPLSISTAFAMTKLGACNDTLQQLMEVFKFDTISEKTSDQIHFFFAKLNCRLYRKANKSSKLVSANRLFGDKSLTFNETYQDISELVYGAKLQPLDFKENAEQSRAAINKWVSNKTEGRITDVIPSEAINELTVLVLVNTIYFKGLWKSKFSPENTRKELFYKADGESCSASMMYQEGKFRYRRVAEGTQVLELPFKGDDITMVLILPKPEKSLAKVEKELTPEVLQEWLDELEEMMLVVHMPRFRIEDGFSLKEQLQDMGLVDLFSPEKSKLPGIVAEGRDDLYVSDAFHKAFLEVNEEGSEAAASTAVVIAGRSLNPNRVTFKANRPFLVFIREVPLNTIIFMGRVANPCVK
# Text: (§1) A competition SPR method[32]−[34] was employed to examine the binding of compounds 1 and 6 to AT-III and PF4, and the results were compared to similar properties of UFH. First, biotinylated heparin was immobilized on a streptavidin-coated sensor chip, which was employed to establish equilibrium dissociation constants (KD) of AT-III and PF4 by employing different concentrations of these proteins as analytes (Figure S9). […] The determined KD values are in close agreement with literature reports.[34]−[36] Next, inhibition experiments were performed by premixing different concentrations of monovalent 1, tetravalent 6, and UFH with AT-III or PF4 followed by exposure to the sensor chip modified by heparin. […] The fact that tetravalent 6 does bind to PF4 supports the notion that it is a mimetic of heparin.
# (§2) 6. Coagulation-related proteins SPR binding and competition studies
# (§3) Coagulation-related proteins SPR binding studies: Human antithrombin-III (AT-III) was obtained from Haematologic technologies. […] Using Biacore T100 evaluation software, AT-III equilibrium dissociation constant (KD) was determined by fitting binding curves to two-state reaction model built in Biacore T100 evaluation software. For PF-4, steady-state affinity analysis was performed on the response curves of various PF-4 concentrations and KD value was calculated (Figure S9). […]
# platelet factor 4 (PF4) = biological target: T2, platelet factor 4 (PF4) (Homo sapiens, UniProt P02776); test: SPR competition assay: binding of PF4 to heparin chip; settings: 100 nM PF-4, 100 to 0.001 μg/mL
# T2 construct: purchased Sino Biological, Inc
# T2 sequence (P02776 32-101): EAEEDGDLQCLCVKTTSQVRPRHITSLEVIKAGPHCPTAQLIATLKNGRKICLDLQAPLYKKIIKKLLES
# Text: as §1, §2, §3
# Factor-Xa = test: AT-III mediated Factor-Xa inhibition assay (Biophen Anti-Xa, two-stage chromogenic); type: biochemical, bovine; settings: colorimetric, Biophen Anti-Xa kit
# Procedure: (§4) To validate the SPR results, AT-III-mediated anti-Factor-Xa and anti-Factor-IIa activities of the mimetics and UFH were measured using a colorimetric assay (Biophen Anti-Xa and Anti-IIa kits, two-stage chromogenic assays) (Figures 6B and S16–S17).
# (§5) AT-III mediated Factor-IIa inhibition assays: Anti-Factor IIa activity of mimetics (1 and 6) and UFH was determined by BIOPHENÔ ANTI-IIa (2 Stages Heparin Assay) kit following manufacturer’s instructions. Human antithrombin (AT-III), purified human thrombin (Factor IIa) and thrombin specific chromogenic substrate [CS-01(38)] were reconstituted and prepared in specific buffers in accordance with kit protocol. […] After exactly 2 min, the reaction was stopped by introducing citric acid (2 wt.%, 80 µL), mixed and absorbance at 405 nm (POLARstar Optima, BMG Labtech) against the corresponding blank was measured. […] Measured blank value were subtracted from the absorbance measured for the corresponding test. The IC50 values (Figures S16) were calculated using dose-response equations [nonlinear regression, log(inhibitor) vs. response-variable slope (four parameters)] built in Prism software 9 (GraphPad Software, Inc.). […]
# (§6) AT-III mediated Factor-Xa inhibition assays: Anti-Factor Xa activity of mimetics (1 and 6) and UFH was determined by BIOPHENÔ ANTI-Xa (2 Stages Heparin Assay) kit following manufacturer’s instructions. […]
# Factor-IIa (thrombin) = biological target: T3, Factor-IIa (thrombin) (Homo sapiens, UniProt P00734); test: AT-III mediated Factor-IIa inhibition assay (Biophen Anti-IIa, two-stage chromogenic); type: biochemical; settings: colorimetric, Biophen Anti-IIa kit
# T3 construct: purchased BIOPHEN ANTI-IIa (2 Stages Heparin Assay) kit
# Procedure: as §4, §5, §6
# Vero E6 cells = settings: 100 μg/mL; 24 h incubation
SMILES,IC50 [1] [µM],"Inhibition of trimeric RBD binding to Vero E6 cells ([2]; 125 μg/mL (62.6 μM), RBDs from Wuhan and delta)",Inhibition of Wuhan RBD binding to Vero E6 cells ([2]; RBD pretreated with 10 and 125 μg/mL compound),"IC50, inhibition of AT-III binding to heparin surface [3]","IC50, inhibition of PF4 binding to heparin surface (platelet factor 4 (PF4))","IC50, AT-III-mediated inhibition of Factor-Xa (Factor-Xa) [µg/mL]","IC50, AT-III-mediated inhibition of Factor-IIa (Factor-IIa (thrombin))",Cytotoxicity on Vero E6 cells (Vero E6 cells)
CC(=O)NC1C(OC2C(C(=O)O)OC(OC3C(COS(=O)(=O)O)OC(OC4C(C(=O)O)OC(OC5C(COS(=O)(=O)O)OC(OC6C(C(=O)O)OC(OC7C(COS(=O)(=O)O)OC(OCCCCCN)C(NS(=O)(=O)O)C7O)C(OS(=O)(=O)O)C6O)C(NS(=O)(=O)O)C5O)C(OS(=O)(=O)O)C4O)C(NS(=O)(=O)O)C3O)C(O)C2O)OC(Cn2cc(CCC(=O)NCCCCCOC3OC(COS(=O)(=O)O)C(OC4OC(C(=O)O)C(OC5OC(COS(=O)(=O)O)C(OC6OC(C(=O)O)C(OC7OC(COS(=O)(=O)O)C(OC8OC(C(=O)O)C(O)C(O)C8O)C(O)C7NS(=O)(=O)O)C(O)C6OS(=O)(=O)O)C(O)C5NS(=O)(=O)O)C(O)C4OS(=O)(=O)O)C(O)C3NS(=O)(=O)O)nn2)C(O)C1O (stereo not drawn) [Compound 4],> 10,–,–,–,–,–,–,–
"NCCCCCOC1OC(COS(=O)(=O)O)C(OC2OC(C(=O)O)C(OC3OC(COS(=O)(=O)O)C(OC4OC(C(=O)O)C(OC5OC(COS(=O)(=O)O)C(OC6OC(C(=O)O)C(O)C(O)C6O)C(O)C5NS(=O)(=O)O)C(O)C4OS(=O)(=O)O)C(O)C3NS(=O)(=O)O)C(O)C2OS(=O)(=O)O)C(O)C1NS(=O)(=O)O (stereo not drawn) [Compound 1, GlcA-GlcNS6S-IdoA2S-GlcNS6S-IdoA2S-GlcNS6S]",> 50,failed to invoke substantial inhibition,no inhibition was detected,no inhibitory potential,no inhibition was observed,70,failed to invoke any inhibition,no toxicity
